The values that follow are results of earlier work, collected in patent publication US20170367972A1, “Formulations and Methods of Treatment for Treating Nail Fungal Infections” (priority 2016, published 2017).

The test system of data set [1] is dermatophytes.
The subject of data set [2] is dermatophytes. This is another data set of the same source.

For the compound `CN(C/C=C/C#CC(C)(C)C)Cc1cccc2ccccc12` [Terbinafine, terbinafine], in the data set with dermatophytes [1], the activity against dermatophytes entry was “fungicidal activity”. Further, the “activity against Candida albicans” value with Candida albicans was “only fungistatic activity”.
Consider `COC1=CC(=O)C[C@@H](C)[C@]12Oc1c(Cl)c(OC)cc(OC)c1C2=O` [griseofulvin], for which, in the data set on dermatophytes [1], the activity against dermatophytes entry is “active in vitro against most dermatophytes”. For the same compound, the “activity against Candida spp.” value in the data set with Candida spp. was “no activity”. Also, the “activity against nondermophytic molds” value in the data set with nondermophytic molds is reported as “no activity”. In the data set with dermatophytes [2], the “effectiveness in dermatophytic infections” value was “effective only for dermatophytic infections”.
